Data as given in PMC6213923, “Meroterpenoids and Isocoumarinoids from a Myrothecium Fungus Associated with Apocynum venetum” (Marine Drugs, 2018).
pIC50: −log10 of the molar value.

Biological target: human-sourced α-glucosidase recombinant expressed in Saccharomyces cerevisiae
Test: α-glucosidase inhibitory assay (pNPG substrate)
Format: biochemical
Conditions: PBS pH 6.8, 37 °C, absorbance at 405 nm, preliminarily investigated, read-out: α-glucosidase inhibition IC50
Description: The α-glucosidase inhibitory activity of 1–13 was preliminarily investigated.
The sample was dissolved in sodium phosphate buffer (PBS, pH 6.8) at three concentrations. 10 μL of the sample solution, 20 μL of 2.5 mM pNPG solution (in phosphate buffer) and 20 μL of PBS were mixed in a 96-well microplate and incubated at 37 °C for 5 min. A volume of 10 μL of α-glucosidase diluted to 0.2 U/mL by 0.01 M PBS was then added to each well. After incubating at 37 °C for 15 min, the absorbance at 405 nm was recorded by a Spectra max 190 micro plate reader (Molecular Devices Inc., San Jose, CA, USA). The blank was prepared by adding phosphate buffer instead of the α-glucosidase and the positive control was acarbose. […] The inhibition (%) was calculated as [1 − (ODdrug/ODblank)] × 100%.

Row | Structure (SMILES) | pIC50
1 | CC(=O)O[C@H]1CC=C2[C@@H](CC[C@@H](C)[C@@]2(C)Cc2c(O)cc(CO)c(C=O)c2O)C1(C)C [Compound 3, Myrothecisin C] | 4.24
2 | COc1cc(O)c2c(=O)oc(CO)c(CO)c2c1 [Compound 9, tubakialactone B] | 4.59
3 | CC(=O)O[C@H]1[C@H](O)C[C@@]2(C)[C@@H](CC[C@@H](C)[C@]23Cc2c(cc(CO)c(C=O)c2O)O3)C1(C)C [Compound 2, Myrothecisin B] | 3.18
4 | Cc1c(CO)oc(=O)c2c(O)cc(O)cc12 [Compound 10, acremonone G] | 3.43
5 | COc1cc(O)c2c(=O)occ(C(O)CO)c2c1 (stereo not shown) [Compound 5, Myrothelactone A] | 3.49
6 | CC(=O)O[C@@H]1C[C@@]2(C)[C@@H](CC[C@@H](C)[C@]23Cc2c(cc(CO)c(C=O)c2O)O3)C(C)(C)[C@H]1O [Compound 1, Myrothecisin A] | 3.30
7 | C[C@@H]1CC[C@@H]2C(=CC[C@H](O)C2(C)C)[C@]1(C)Cc1c(O)cc(CO)c(C=O)c1O [Compound 4, Myrothecisin D] | 3.70
8 | C[C@H]1O[C@H](O[C@H]2[C@H](O)[C@@H](O)[C@@H](O[C@H]3[C@H](O)[C@@H](O)C(O)O[C@@H]3CO)O[C@@H]2CO)[C@H](O)[C@@H](O)[C@@H]1N[C@H]1C=C(CO)[C@@H](O)[C@H](O)[C@H]1O (stereo partly shown) [acarbose, reference compound] | 3.33
9 | COc1cc(O)c2c(=O)occ(C(=O)CO)c2c1 [Compound 7, Myrothelactone C] | 4.44

System: not given
Test: not given
Conditions: not given

Row | Structure (SMILES) | melting point [°C]
10 | COc1cc(O)c2c(=O)occ(C(=O)CO)c2c1 [Compound 7, Myrothelactone C] | 160 to 161
